Counter-ions that a name gives are not always drawn.
Assay: Comparison of physical properties: solubility in esters, ketones, ethers
Format: physicochemical
Settings: organic solvents: esters
Experimental: The following is a comparative example, comparing substantially pure lercanidipine free base prepared as described in example 1 (a to d) with crude free base prepared by the method of U.S. Pat. No. 4,705,797 and lercanidipine hydrochloride. Crude free base was prepared as described below. Lercanidipine hydrochloride was obtained from Recordati S.p.A., Milan, Italy.

| Solubility in esters, ketones, ethers | Solubility in esters, ketones, ethers (hydrochloride) | SMILES |
| --- | --- | --- |
| Very soluble |  | COC(=O)C1=C(C)NC(C)=C(C(=O)OC(C)(C)CN(C)CCC(c2ccccc2)c2ccccc2)C1c1cccc([N+](=O)[O-])c1 (centres unmarked) [Crude Free Base, methyl 1,1,N-trimethyl-N-(3,3-diphenylpropyl)-2-aminoethyl 1,4-dihydro-2,6-dimethyl-4-(3-nitrophenyl)pyridine-3,5-dicarboxylate] |
|  | insoluble | COC(=O)C1=C(C)NC(C)=C(C(=O)OC(C)(C)CN(C)CCC(c2ccccc2)c2ccccc2)C1c1cccc([N+](=O)[O-])c1 (centres unmarked) [Lercanidipine Hydrochloride, lercanidipine hydrochloride] |

From patent US20060199849A1, “Solid lercanidipine free base” (Recordati Ireland Limited, priority 2005, published 2006)
